Data reported in US7105558B2, “Gastrin and cholecystokinin receptor lignads (iv)” (The James Black Foundation Limited, priority 2000, dated 2006).

Biological target: T1, gastrin (CCK2) receptors (Rattus norvegicus, UniProt P30553)
T1 construct: The stomach was excised and flushed with ca. 1 ml of unbuffered physiological saline solution; from tissue; host or cells: isolated whole stomach of immature rats (33-50 g, ca. 21 days old)
T1 sequence (P30553 1-452): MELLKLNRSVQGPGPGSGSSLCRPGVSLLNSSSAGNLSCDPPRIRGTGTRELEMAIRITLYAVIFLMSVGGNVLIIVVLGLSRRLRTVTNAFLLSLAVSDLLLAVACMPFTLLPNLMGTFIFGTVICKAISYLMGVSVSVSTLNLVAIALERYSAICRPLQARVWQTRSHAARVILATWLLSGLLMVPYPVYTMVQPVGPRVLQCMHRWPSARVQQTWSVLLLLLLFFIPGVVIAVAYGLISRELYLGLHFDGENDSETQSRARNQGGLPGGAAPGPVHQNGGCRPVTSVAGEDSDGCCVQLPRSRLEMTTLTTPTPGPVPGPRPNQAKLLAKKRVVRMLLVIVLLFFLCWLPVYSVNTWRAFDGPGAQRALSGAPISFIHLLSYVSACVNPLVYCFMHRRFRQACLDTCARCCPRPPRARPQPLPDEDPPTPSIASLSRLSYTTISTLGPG
Assay: immature rat stomach assay for gastrin (CCK2) antagonist activity (pentagastrin-stimulated acid secretion)
Details: isolated immature rat stomach, antagonism of pentagastrin dose-response curves, 60 min incubation; tested as N-methyl D-glucamine salts
Description: The compounds of the examples were tested for gastrin (CCK2) antagonist activity in an immature rat stomach assay. The procedure was as follows:
The oesophagus of immature rats (33-50 g, ca. 21 days old) was ligated at the level of the cardiac sphincter and the duodenal sphincter was cannulated. The stomach was excised and flushed with ca. 1 ml of unbuffered physiological saline solution. The fundus was punctured and cannulated. A further 4-5 ml of unbuffered solution was flushed through the stomach to ensure the preparation was not leaking. The stomach was lowered into a jacketed organ bath containing 40 ml of buffered solution containing 3×10^−8 M 5-methylfurmethide, maintained at 37° and gassed vigorously with 95% O2/5% CO2. The stomach was continuously perfused at a rate of 1 ml min^−1 with unbuffered solution gassed with 100% O2 with the perfusate passing over an internally referenced pH-electrode fixed 12 cm above the stomach.
After 120 min of stabilisation the drugs were added directly to the serosal solution in the organ bath and after a further 60 min cumulative pentagastrin dose-response curves were started. Changes in acid secretion were monitored and the curves analysed according to Black et al, Br. J. Pharmacol., 1985, 86, 581.

In the case of `Nc1ccccc1-n1nc(COC23CC4CC(CC(C4)C2)C3)c(C(=O)Nc2cccc(C(=O)O)c2)n1` [Example 27], the “Rat stomach pKB” value is reported as 6.67 ± 0.17.

Same assay, conditions: isolated immature rat stomach, antagonism of pentagastrin dose-response curves, 60 min incubation; tested as N-methyl D-glucamine salts; read-out: Rat stomach pKB (converted)

`Cc1ccc(-n2nc(COC34CC5CC(CC(C5)C3)C4)c(C(=O)Nc3cccc(C(=O)O)c3)n2)c(C)c1` [Example 25, 3-[[5-(Adamantan-1-yloxymethyl)-2-(2,4-dimethyl-phenyl)-2H-[1,2,3]triazole-4-carbonyl]-amino]-benzoic acid] and `O=C(O)c1cccc(NC(=O)c2nn(-c3ccccc3[N+](=O)[O-])nc2COC23CC4CC(CC(C4)C2)C3)c1` [Example 26, 3-[[5-(Adamantan-1-yloxymethyl)-2-(2-nitro-phenyl)-2H-[1,2,3]triazole-4-carbonyl]-amino]-benzoic acid] are within 1.5-fold of each other in Kb: 316 nM for the first, 380 nM for the second.

Compared with `O=C(O)c1cccc(NC(=O)c2nn(-c3c(Cl)cccc3Cl)nc2COc2ccccc2)c1` [Example 28, 3-{[2-(2,6-Dichloro-phenyl)-5-phenoxymethyl-2H-[1,2,3]triazole-4-carbonyl]-amino}-benzoic acid], `O=C(O)c1cccc(NC(=O)c2nn(-c3c(Cl)cccc3Cl)nc2COC2CCCCC2)c1` [Example 30, 3-{[5-Cyclohexyloxymethyl-2-(2,6-dichloro-phenyl)-2H-[1,2,3]triazole-4-carbonyl]-amino}-benzoic acid] is 4.5-fold lower in Kb: 1230 nM for the first, 275 nM for the second.

First: O=C(O)c1cccc(NC(=O)c2nn(-c3c(Cl)cccc3Cl)nc2COC2CCCCCC2)c1 [Example 29, 3-{[5-Cycloheptyloxymethyl-2-(2,6-dichloro-phenyl)-2H-[1,2,3]triazole-4-carbonyl]-amino}-benzoic acid]
Second: O=C(O)Cc1cccc(NC(=O)c2nn(-c3c(Cl)cccc3Cl)nc2COC23CC4CC(CC(C4)C2)C3)c1 [Example 31, (3-{[5-(Adamantan-1-yloxymethyl)-2-(2,6-dichloro-phenyl)-2H-[1,2,3]triazole-4-carbonyl]-amino}-phenyl)acetic acid]
The Kb of the first is 29-fold lower: 97.7 nM for the first, 2820 nM for the second.

For `O=C(O)c1cccc(NC(=O)c2c(COC34CC5CC(CC(C5)C3)C4)nnn2C2CCCCCC2)c1` [Example 32, 3-{[5-(Adamantan-1-yloxymethyl)-3-cycloheptyl-3H-[1,2,3]triazole-4-carbonyl]-amino}-benzoic acid], the Kb was 3720 nM.
